Measurements: patent US10316028B2, “Orexin receptor antagonists” (Heptares Therapeutics Limited, priority 2012, dated 2019)

The compounds below were run against T1, human Orexin-2 receptor (Homo sapiens, UniProt O43614) (assay: 3H-EMPA radioligand binding assay). Details: 3H-EMPA displacement, membranes of HEK293 cells transfected with human Orexin-2 receptor; KI by Cheng-Prussoff; read-out: OX2 pKi ave (converted).
T1 construct: expressed in transfected cells; host or cells: HEK293 cells (transient transfection, Genejuice); membranes
T1 sequence (O43614 1-444): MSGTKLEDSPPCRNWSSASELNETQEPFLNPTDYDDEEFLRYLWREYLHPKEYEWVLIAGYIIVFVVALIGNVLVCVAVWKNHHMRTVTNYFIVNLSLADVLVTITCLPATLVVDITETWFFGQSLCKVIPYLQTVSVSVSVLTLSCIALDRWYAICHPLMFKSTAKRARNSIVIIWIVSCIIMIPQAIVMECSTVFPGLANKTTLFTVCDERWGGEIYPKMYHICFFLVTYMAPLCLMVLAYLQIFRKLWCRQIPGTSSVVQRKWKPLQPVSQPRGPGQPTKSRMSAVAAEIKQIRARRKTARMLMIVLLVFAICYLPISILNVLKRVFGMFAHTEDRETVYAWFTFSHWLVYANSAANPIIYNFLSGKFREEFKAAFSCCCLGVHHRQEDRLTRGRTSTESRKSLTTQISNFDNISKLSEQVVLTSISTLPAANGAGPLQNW
Procedure: cDNA encoding the human Orexin-2 receptor was transfected into HEK293 cells using the transfection reagent Genejuice (Novagen). Forty-eight hours after transfection, cells were harvested and washed twice with ice cold phosphate-buffered saline. The pellet was resuspended in ice-cold buffer containing 20 mM Tris-HCl, pH 7.4, 1 mM EDTA and homogenised with an Ultraturax for 30 s at maximum speed. After centrifugation at 48,000 g for 30 min at 4° C., the pellet was resuspended and spun again. The final pellet was resuspended and frozen at −80° C. before use. Protein concentration was determined using the BCA protein assay method.
^3H-EMPA Radioligand Binding Assay
At the end of the incubation, membranes were filtered onto a unifilter, a 96-well white microplate with bonded GF/B filter pre-incubated with 0.5% polyethylenimine, with a Tomtec cell harvester and washed 4 times with distilled water. […] Radioactivity on the filter was counted (1 min) on a microbeta counter after addition of 50 µL of scintillation fluid. […] IC50 values were derived from the inhibition curve and the equilibrium dissociation constant (KI) values were calculated using the Cheng-Prussoff equation.

| SMILES | Ki [nM] |
| --- | --- |
| CCc1ccc(N2C(=O)N(Cc3c(F)cccc3Cl)c3ccccc3S2(=O)=O)cc1 [Example 37, 4-(2-chloro-6-fluorobenzyl)-2-(4-ethylphenyl)-2H-1,2,4-benzothiadiazin-3(4H)-one 1,1-dioxide] | 5.01 |
| Cc1cccc(N2C(=O)N(Cc3c(F)cccc3Cl)c3ccccc3S2(=O)=O)c1C [Example 38, 4-(2-chloro-6-fluorobenzyl)-2-(2,3-dimethylphenyl)-2H-1,2,4-benzothiadiazin-3(4H)-one 1,1-dioxide] | 15.8 |
| O=C1N(Cc2c(F)cccc2Cl)c2ccccc2S(=O)(=O)N1Cc1ccc(F)cc1 [Example 39, 4-(2-chloro-6-fluorobenzyl)-2-(4-fluorobenzyl)-2H-1,2,4-benzothiadiazin-3(4H)-one 1,1-dioxide] | 20 |
| O=C1N(Cc2c(F)cccc2Cl)c2ccccc2S(=O)(=O)N1Cc1ccccc1 [Example 40, 2-benzyl-4-(2-chloro-6-fluorobenzyl)-2H-1,2,4-benzothiadiazin-3(4H)-one 1,1-dioxide] | 26.3 |
| Cc1ccc(Cl)cc1N1C(=O)N(Cc2c(F)cccc2Cl)c2ccccc2S1(=O)=O [Example 41, 4-(2-chloro-6-fluorobenzyl)-2-(5-chloro-2-methylphenyl)-2H-1,2,4-benzothiadiazin-3(4H)-one 1,1-dioxide] | 25.1 |
| Cc1ccc(N2C(=O)N(Cc3c(F)cccc3Cl)c3ccccc3S2(=O)=O)c(C)c1 [Example 45, 4-(2-chloro-6-fluorobenzyl)-2-(2,4-dimethylphenyl)-2H-1,2,4-benzothiadiazin-3(4H)-one 1,1-dioxide] | 16.6 |
| O=C1N(Cc2c(F)cccc2Cl)c2ccccc2S(=O)(=O)N1c1cc(F)ccc1F [Example 46, 4-(2-chloro-6-fluorobenzyl)-2-(2,5-difluorophenyl)-2H-1,2,4-benzothiadiazin-3(4H)-one 1,1-dioxide] | 63.1 |
| CC(C)c1ccc(N2C(=O)N(Cc3c(F)cccc3Cl)c3ccccc3S2(=O)=O)cc1 [Example 48, 4-(2-chloro-6-fluorobenzyl)-2-[4-(propan-2-yl)phenyl]-2H-1,2,4-benzothiadiazin-3(4H)-one 1,1-dioxide] | 3.72 |
| CSc1cccc(N2C(=O)N(Cc3ccc(F)cc3Cl)c3ccccc3S2(=O)=O)c1 [Example 50, 4-(2-chloro-4-fluorobenzyl)-2-[3-(methylsulfanyl)phenyl]-2H-1,2,4-benzothiadiazin-3(4H)-one 1,1-dioxide] | 35.5 |
| CSc1cccc(N2C(=O)N(Cc3cc(C)ccc3C)c3ccccc3S2(=O)=O)c1 [Example 51, 4-(2,5-dimethylbenzyl)-2-[3-(methylsulfanyl)phenyl]-2H-1,2,4-benzothiadiazin-3(4H)-one 1,1-dioxide] | 17.8 |
| COC(=O)c1ccc(OC)c(CN2C(=O)N(c3cccc(SC)c3)S(=O)(=O)c3ccccc32)c1 [Example 52, methyl 3-({2-[3-(methylsulfanyl)phenyl]-1,1-dioxido-3-oxo-2,3-dihydro-4H-1,2,4-benzothiadiazin-4-yl}methyl)-4-methoxybenzoate] | 2.63 |
| Cc1ccc(N2C(=O)N(Cc3ccccc3F)c3ccccc3S2(=O)=O)cc1Cl [Example 53, 4-(2-fluorobenzyl)-2-(3-chloro-4-methylphenyl)-2H-1,2,4-benzothiadiazin-3(4H)-one 1,1-dioxide] | 31.6 |
| Cc1ccc(N2C(=O)N(Cc3ccccc3C)c3ccccc3S2(=O)=O)cc1Cl [Example 54, 4-(2-methylbenzyl)-2-(3-chloro-4-methylphenyl)-2H-1,2,4-benzothiadiazin-3(4H)-one 1,1-dioxide] | 43.7 |
| Cc1cc(C)cc(N2C(=O)N(Cc3ccccc3Cl)c3ccccc3S2(=O)=O)c1 [Example 55, 4-(2-chlorobenzyl)-2-(3,5-dimethylphenyl)-2H-1,2,4-benzothiadiazin-3(4H)-one 1,1-dioxide] | 30.9 |
| Cc1cc(C)cc(N2C(=O)N(Cc3ccccc3F)c3ccccc3S2(=O)=O)c1 [Example 56, 4-(2-fluorobenzyl)-2-(3,5-dimethylphenyl)-2H-1,2,4-benzothiadiazin-3(4H)-one 1,1-dioxide] | 20.9 |
| Cc1ccc(N2C(=O)N(Cc3ccccc3F)c3ccccc3S2(=O)=O)cc1C [Example 57, 4-(2-fluorobenzyl)-2-(3,4-dimethylphenyl)-2H-1,2,4-benzothiadiazin-3(4H)-one 1,1-dioxide] | 23.4 |
| O=C1N(Cc2ccccc2Cl)c2ccccc2S(=O)(=O)N1Cc1ccccc1 [Example 58, 2-benzyl-4-(2-chlorobenzyl)-2H-1,2,4-benzothiadiazin-3(4H)-one 1,1-dioxide] | 933 |
| Cc1ccc(N2C(=O)N(Cc3ccccc3Cl)c3ccccc3S2(=O)=O)cc1C [Example 59, 4-(2-chlorobenzyl)-2-(3,4-dimethylphenyl)-2H-1,2,4-benzothiadiazin-3(4H)-one 1,1-dioxide] | 43.7 |
| COC(=O)c1ccc(OC)c(CN2C(=O)N(c3ccc(OC)c(OC)c3)S(=O)(=O)c3ccccc32)c1 [Example 60, methyl 3-{[2-(3,4-dimethoxyphenyl)-1,1-dioxido-3-oxo-2,3-dihydro-4H-1,2,4-benzothiadiazin-4-yl]methyl}-4-methoxybenzoate] | 40.7 |

Other lines, results leading:

| Ki [nM] | SMILES |
| --- | --- |
| 1.12 | Cc1ccc(N2C(=O)N(Cc3c(F)cccc3Cl)c3ccccc3S2(=O)=O)cc1C [Example 34, 4-(2-chloro-6-nuorobenzyl)-2-(3,4-dimethylphenyl)-2H-1,2,4-benzothiadiazin-3(4H)-one 1,1-dioxide] |
| 31.6 | COc1ccccc1N1C(=O)N(Cc2c(F)cccc2Cl)c2ccccc2S1(=O)=O [Example 35, 4-(2-chloro-6-fluorobenzyl)-2-(2-methoxyphenyl)-2H-1,2,4-benzothiadiazin-3(4H)-one 1,1-dioxide] |
| 15.8 | COc1cccc(N2C(=O)N(Cc3c(F)cccc3Cl)c3ccccc3S2(=O)=O)c1 [Example 36, 4-(2-chloro-6-fluorobenzyl)-2-(3-methoxyphenyl)-2H-1,2,4-benzothiadiazin-3(4H)-one 1,1-dioxide] |
| 14.1 | O=C1N(Cc2c(F)cccc2Cl)c2ccccc2S(=O)(=O)N1c1cccc(Cl)c1 [Example 42, 4-(2-chloro-6-fluorobenzyl)-2-(3-chlorophenyl)-2H-1,2,4-benzothiadiazin-3(4H)-one 1,1-dioxide] |
| 4.68 | Cc1ccc(N2C(=O)N(Cc3c(F)cccc3Cl)c3ccccc3S2(=O)=O)cc1F [Example 43, 4-(2-chloro-6-fluorobenzyl)-2-(3-fluoro-4-methylphenyl)-2H-1,2,4-benzothiadiazin-3(4H)-one 1,1-dioxide] |
| 31.6 | O=C1N(Cc2c(F)cccc2Cl)c2ccccc2S(=O)(=O)N1c1ccc(F)cc1 [Example 44, 4-(2-chloro-6-fluorobenzyl)-2-(4-fluorophenyl)-2H-1,2,4-benzothiadiazin-3(4H)-one 1,1-dioxide] |
| 2.51 | CCc1cccc(N2C(=O)N(Cc3c(F)cccc3Cl)c3ccccc3S2(=O)=O)c1 [Example 47, 4-(2-chloro-6-fluorobenzyl)-2-(3-ethylphenyl)-2H-1,2,4-benzothiadiazin-3(4H)-one 1,1-dioxide] |
| 1.05 | CSc1cccc(N2C(=O)N(Cc3c(F)cccc3Cl)c3ccccc3S2(=O)=O)c1 [Example 49, 4-(2-chloro-6-fluorobenzyl)-2-[3-(methylsulfanyl)phenyl]-2H-1,2,4-benzothiadiazin-3(4H)-one 1,1-dioxide] |
